In patent US11903911B1, “Method of treating obesity by reversal of Na/K-Atpase inhibition” (Marshall University Research Corporation, priority 2019, dated 2024):
“Also recorded” adds a separate entry of the source.

Columns and labels:
[1] = test system: SGLT1; assay: Na-glucose co-transport (SGLT1) uptake in villus cell BBMV of L-NAME-treated obese rats; format: in vivo, rat; conditions: obese rats (OZR) treated for at least one week with L-NAME; FIG. 21
Excerpt: Animal models and treatment. Zucker rats (Strain code: 185 (Obese), 186 (Lean); 18 wks) obtained from Charles River Laboratories International, Inc. were used as a genetic model of obesity, and C57BL/6 mice (B6) (The Jackson Laboratory) and Sprague Dawley rats (Strain code: 400; Charles River Laboratories International, Inc.) were used as a diet-induced model of obesity. B6 mice were fed with either a low-fat diet (LFD) (10% calories from fat; Cat. No: 58124, LabDiet, USA) or high-fat diet (HFD) (60% calories from fat; Cat. No: 58126, LabDiet, USA) starting at 4 weeks of age until they reached 20 weeks of age. Sprague Dawley rats were fed the above-mentioned diets from the age of 12 weeks for 6 weeks to induce obesity. […] Studies determined that 10 mg dose of L-NAME was the lowest dose to consistently affect transporter activities and was therefore used in all subsequent experiments. […]
Uptake studies in intact villus cells and BBMVs. […] Filters with intact villus cells were dissolved in 5 ml scintillation fluid (Ecoscint, National Diagnostics), and radioactivity was determined in a Beckman 6500 Beta Scintillation Counter. […] The uptake experiment results were expressed as Na-glucose co-transport uptake in nanomoles per milligram protein at 60 sec for mice or 90 sec for rats. […]

[2] = test system: Cl:HCO3 exchange (DRA/PAT1); assay: Cl/HCO3 exchange uptake in BBMV of L-NAME-treated obese rats; format: in vivo, rat; conditions: obese rats (OZR) treated for at least one week with L-NAME; FIG. 22
Excerpt: (§1) Animal models and treatment. Zucker rats (Strain code: 185 (Obese), 186 (Lean); 18 wks) obtained from Charles River Laboratories International, Inc. were used as a genetic model of obesity, and C57BL/6 mice (B6) (The Jackson Laboratory) and Sprague Dawley rats (Strain code: 400; Charles River Laboratories International, Inc.) were used as a diet-induced model of obesity. B6 mice were fed with either a low-fat diet (LFD) (10% calories from fat; Cat. No: 58124, LabDiet, USA) or high-fat diet (HFD) (60% calories from fat; Cat. No: 58126, LabDiet, USA) starting at 4 weeks of age until they reached 20 weeks of age. Sprague Dawley rats were fed the above-mentioned diets from the age of 12 weeks for 6 weeks to induce obesity. To inhibit constitutive nitric oxide production in both mice and rats, the animals were first treated with either a 10 or 25 mg/kg per day dosage of used N^G-nitro-L-arginine methyl ester (L-NAME). Studies determined that 10 mg dose of L-NAME was the lowest dose to consistently affect transporter activities and was therefore used in all subsequent experiments. […] Cl/HCO3 exchange uptake was measured in BBMV by rapid filtration technique as previously described. […] Results were calculated as the HCO3 dependent DIDS sensitive Cl uptake.

[3] = test system: NHE3; assay: Na/H exchange (NHE3) uptake in BBMV of L-NAME-treated obese rats; format: in vivo, rat; conditions: obese rats treated with L-NAME; FIG. 23
Excerpt: as §1, with “Na/H” for “Cl/HCO3”, “The results” for “Results”, “expressed” for “calculated”, “Na/H exchange in picomoles per milligram protein at 60 sec.” for “the HCO3 dependent DIDS sensitive Cl uptake.”

[4] = test system: transporter activities; assay: L-NAME dose finding on intestinal transporter activities; format: in vivo; conditions: 10 or 25 mg/kg per day tested in mice and rats
Excerpt: Animal models and treatment. Zucker rats (Strain code: 185 (Obese), 186 (Lean); 18 wks) obtained from Charles River Laboratories International, Inc. were used as a genetic model of obesity, and C57BL/6 mice (B6) (The Jackson Laboratory) and Sprague Dawley rats (Strain code: 400; Charles River Laboratories International, Inc.) were used as a diet-induced model of obesity. B6 mice were fed with either a low-fat diet (LFD) (10% calories from fat; Cat. No: 58124, LabDiet, USA) or high-fat diet (HFD) (60% calories from fat; Cat. No: 58126, LabDiet, USA) starting at 4 weeks of age until they reached 20 weeks of age. Sprague Dawley rats were fed the above-mentioned diets from the age of 12 weeks for 6 weeks to induce obesity. To inhibit constitutive nitric oxide production in both mice and rats, the animals were first treated with either a 10 or 25 mg/kg per day dosage of used N^G-nitro-L-arginine methyl ester (L-NAME). Studies determined that 10 mg dose of L-NAME was the lowest dose to consistently affect transporter activities and was therefore used in all subsequent experiments. For the diet-induced mice obesity model, LFD and HFD fed B6 mice were treated with this dose from the age of 20 weeks, and Sprague Dawley rats were treated from the age of 17 wks for 1 week. All the experimental animals were handled and euthanized according to Marshall University IACUC regulations.

COC(=O)[C@@H](N)CCCNC(=N)N[N+](=O)[O-] [L-NAME, N^G-nitro-L-arginine methyl ester]
effect on the stimulation of SGLT1 (glucose absorption) in obese rats [1]: reversed the stimulation of SGLT1
effect on the stimulation of Cl:HCO3 (NaCl absorption) in obese rats [2]: reversed the stimulation of Cl:HCO3
effect on NHE3 activity in obese rats [3]: did not affect NHE3; also recorded: does not affect NHE3 activity
lowest dose to consistently affect transporter activities [4]: 10 mg
